Numbered stars: 1 amine (or outer) side, 2 acyl side, 3 side chain; on linkers, the order of the positions; unused ones are H or OH. Bridge positions count the residues as written; N and C are the ends. Square brackets hold non-standard residues; d marks the D form. Peptide text beside a SMILES is read from it. X1 = CC(C)CCCCCCCCC[C@H](CC(=O)[*:1])O[*:2]
Legend:
[1] = test system: S. enterica pre-formed biofilm; assay: Dispersal of pre-formed biofilm in PVC wells; type: cell-based, Salmonella enterica; settings: for effect on pre-formed biofilms: detergent-like compounds mixed into cultures in PVC wells
Procedure: (§1) Studies were done to test biofilm formation in microtitre wells. To quantify biofilm formation, typically, 10 μl of an overnight culture were used to inoculate PVC microtitre wells containing 90 μl of LB without NaCl, but with 2% glucose. The covered microtitre dish was sealed with parafilm during incubation at 30° C. Cultures were removed to determine the OD630, and the wells were rinsed with distilled water. After drying at room temperature for 15 minutes, 200 μl of crystal violet (1%) was added to the wells for 20 minutes The stained biofilms were rinsed several times with distilled water, allowed to dry at room temperature for 15 minutes, and extracted with 2×200 μl 95% ethanol. The OD550 was estimated using a Beckman DU-640B spectrophotometer, after adjusting the volume to 1 mL with distilled water.
Surfactin was added to PVC wells after the culture had reached an OD630 of approximately 0.15-0.2. When this OD was reached, the surfactants were gently mixed into the cultures in microtitre wells. Samples were harvested and either growth as determined by OD630 or biofilm levels as measured by OD550 of CV-stained material were analyzed. The OD550 of the surfactin-treated sample decreased at a faster rate than that of the untreated sample for the initial sloughing phase of BF, resulting in an approximately 85% decrease in total biofilm by the end of the experiment at 22 hours.
The detergents tested were SDS (ionic surfactant), Tween-80 ([…] surfactant), rhamnolipid (another lipopeptide surfactant) and serrawettin. Surfactin concentration in this and the rest of the studies was maintained at 100 μg in order to compare its activity to that of the biosurfactant rhamnolipid, which affected BF when it was used at higher concentrations.

wild-type S. enterica = assay: Biofilm formation in PVC microtitre wells, crystal violet staining; type: cell-based, Salmonella enterica
Procedure: The ability of lipopolysaccharide (LPS) mutants to form biofilms was tested in PVC microtitre plates. The biofilm assay used monitors the ability of S. enterica to attach to the wells of the microtitre dishes. The biofilm formed at the interface between the air and liquid medium, and was quantitated by staining with crystal violet (CV) as described in the examples given below.
as §1
The swarming defect of the LPS mutants could be rescued by the addition of the surfactin isolated from Bacillus subtilis. […]

Salmonella typhimurium = assay: Biofilm formation in catheters, crystal violet staining; type: cell-based; design: key to Biofilm Formation: “++++” = efficient biofilm formation; “−” = no biofilm formation; settings: for inhibition of BF by S. enterica relative to surfactin: catheters, Tween 80 at 0.25%, 10 to 100 million bacterial cells
Procedure: (§2) To visualize biofilm formation in catheters, 10 μl of an overnight culture of S. enterica was inoculated into 500 μl of medium and injected into clear vinyl urethral catheters overnight at 30° C., with and without 100 μg surfactin. Biofilms were analyzed by staining with CV. The catheters were capped at both ends and incubated at 30° C. overnight. Media and growth conditions were as described above for PVC wells. Cultures were removed to determine the OD630, and the catheters were rinsed with distilled water. After drying at room temperature for 15 minutes, 700 μl of crystal violet (1%) was added to the catheters for 20 minutes. The stained biofilms were rinsed several times with distilled water, and allowed to dry at room temperature for 15 minutes before examination.
S. enterica was grown in clear vinyl urethral catheters. The biofilm formed by S. enterica was dispersed all along the growth surface. […] It is important to note that the same results were obtained when venous catheters made of polyurethane were tested. The data presented here relate mainly to the urethral catheters.
When the device coated is to be inserted in the body cavity, some form of surface sterilization may be necessary. Also, endogenous fluids should not wash off the surfactin coating. Studies were conducted to determine these properties of the coating (Table 1). Urethral catheters were coated with surfactin (by passing through 500 μl of a solution of 1.0 μg/μl surfactin), and 10 mL of sterile saline solution were passed through the coated catheter.
After coating urethral cathethers with surfactin, the coated catheters were subjected to treatment in an autoclave (121° C., 15 psi) for 30 minutes or baking in a 50° C. oven for 6 hours. […] Surfactin, apparently adhered to the catheters, largely inhibiting biofilm formation.
The biofilm-inhibiting properties of surfactin are not altered after storing surfactin-baked catheters (baked for one hour at 60° C.) for 5 days at room temperature (Table 2). Further, baked on surfactin is not washed off by sterile saline dripping through the catheter at 0.3 mL/minutes for 24 hours. The BF-inhibiting properties of surfactin are stable over 50 days of storage at either room temperature or at 4° C. Thus, medical devices coated with surfactin, or a substance with surfactin-like properties, may be partially sterilized by baking at 60° C., and the sterility would be maintained over a long period of time.

Escherichia coli = assay: Biofilm formation in urethral catheters, crystal violet staining; type: cell-based
Procedure: as §2
(§3) The most common causes of central urinary catheter and central venous catheter infections (caused by adherent bacteria), include Eschericila coli, Proteus mirabilis, and Pseudomonas aeruginosa, Klebseiella pneumoniae, Staphylococcus epidermis. The effect of surfactin on BF by some of these medically relevant organisms was tested by growth of the organism in urethral catheters (Table 3). Escherichia coli and Proteus mirabilis formed a biofilm mainly at the air liquid interface, while the biofilm formed by P. aeruginosa, like that formed by S. enterica, was dispersed all along the catheter.

Proteus mirabilis = assay: as above; type: cell-based
Procedure: as §2, §3

Staphylococcus epidermis = assay: as above; type: cell-based; settings: Surfactin-coated catheters
Procedure: as §2, §3

[2] = test system: LPS mutants of S. enterica; assay: Rescue of swarming defect of LPS mutants; type: cell-based, Salmonella enterica; settings: addition of surfactin isolated from Bacillus subtilis

`CCCCCCCCCCCCOS(=O)(=O)[O-].[Na+]` [SDS] was tested, and the “effect on pre-formed biofilms” value [1] was “dispersed pre-formed biofilm”.
`CC(C)CCCCCCCCC[C@@H]1CC(=O)N[C@@H](CCC(=O)O)C(=O)N[C@@H](CC(C)C)C(=O)N[C@H](CC(C)C)C(=O)N[C@@H](C(C)C)C(=O)N[C@@H](CC(=O)O)C(=O)N[C@H](CC(C)C)C(=O)N[C@@H](CC(C)C)C(=O)O1` [Surfactin, surfactin] (EL[dL]VD[dL]L; linker N-C via X1) was tested, and the “amount of surfactin sufficient to completely abolish BF” value (wild-type S. enterica; PVC wells pre-coated or surfactin in growth medium, overnight at 30° C.) was under 5 µg, the Bacterial growth (wild-type S. enterica; all surfactin concentrations tested) was “unaffected” and the “decrease in total biofilm (pre-formed)” value ([1]; surfactin 100 μg added at OD630 0.15-0.2, end of experiment at 22 hours) was “approximately 85%”. For the same molecule, the “stability of BF-inhibiting properties on storage” value (Salmonella typhimurium; 50 days of storage at room temperature or at 4° C.) was “stable”, the “Biofilm formation, optical density reading based on crystal violet staining” value (“Biofilm formation … on crystal violet staining” for short) (Salmonella typhimurium; Surfactin-coated catheters) was 0.05 and the “Biofilm Formation” value (Salmonella typhimurium; catheter treatment: Surfactin, saline wash (10 mL sterile saline)) was “++++”. The “Biofilm Formation” value (Salmonella typhimurium; catheter treatment: Surfactin, the oven (50° C., 6 hours)) was “−”, the “formation of biofilm on the catheters” value (Salmonella typhimurium; clear vinyl urethral catheters, 100 μg surfactin, overnight at 30° C.) was “eliminated the formation of biofilm” and the “effect of oven treatment on biofilm inhibition by surfactin” value (Salmonella typhimurium; coated catheters baked in 50° C. oven for 6 hours) was “no effect”. The “resistance of baked surfactin coating to saline washing” value (Salmonella typhimurium; oven treatment of surfactin coated catheters) was “resistant to saline washing”, the “effectiveness of pre-coating catheters versus surfactin in the growth medium” value (Salmonella typhimurium; surfactin solution run through catheters prior to inoculation) was “just as effective” and the “Biofilm formation … on crystal violet staining” value (Salmonella typhimurium; surfactin-baked catheters (one hour at 60° C.), 5 days at room T.) was 0.05. The “Biofilm formation … on crystal violet staining” value (Salmonella typhimurium; surfactin-baked catheters, 24 hour saline wash (0.3 mL/minutes)) was 0.06, the “Biofilm Formation” value (Salmonella typhimurium; urethral catheter treatment: Surfactin) was “−” and the “Biofilm formation … on crystal violet staining” value (Escherichia coli; Surfactin-coated catheters) was 0.05. The “inhibition of BF and growth” value (Escherichia coli; growth in urethral catheters) was “inhibited BF (but not growth)”, the “Biofilm formation … on crystal violet staining” value (Proteus mirabilis; Surfactin-coated catheters) was 0.11 and the “inhibition of BF and growth” value (Proteus mirabilis; growth in urethral catheters) was “inhibited BF (but not growth)”. For the same molecule, the “Biofilm formation … on crystal violet staining” value (Staphylococcus epidermis) was 0.40 and the “swarming defect of the LPS mutants” value [2] was “rescued”.
`CCCCCCCC/C=C\CCCCCCCC(=O)OCCOCC(OCCO)C1OCC(OCCO)C1OCCO` (centres unmarked) [Tween-80, reference compound] was tested, and the “effect on pre-formed biofilms” value [1] was “dispersed pre-formed biofilm” and the “inhibition of BF by S. enterica relative to surfactin” value (Salmonella typhimurium) was “as effective as surfactin”.
rhamnolipid [reference compound] was tested, and the “effect on pre-formed biofilms” value [1] was “dispersed pre-formed biofilm” and the “inhibition of BF by S. enterica relative to surfactin” value (Salmonella typhimurium) was “only half as effective”.
With serrawettin the “effect on pre-formed biofilms” value [1] was “dispersed pre-formed biofilm”.

Reference: patent publication US20030134783A1, “Use of cyclic heptapeptides for the inhibition of biofilm formation” (priority 2001, published 2003)
